Patent publication US10363257B2 (ZENITH EPIGENETICS LTD., priority 2013, dated 2019)

Target: T1, Brd4 bromodomain 1 (BRD4(1)) (Homo sapiens, UniProt O60885)
T1 construct: made in house; host or cells: E. coli BL21(DE3)
Assay: Inhibition of tetra-acetylated histone H4 binding to Brd4 bromodomain 1 (TR-FRET)
Conditions: tetra-acetylated histone H4 peptide, first bromodomain of Brd4
Method: Proteins were cloned and overexpressed with a N-terminal 6× His tag, then purified by nickel affinity followed by size exclusion chromatography. Briefly, E.coli BL21(DE3) cells were transformed with a recombinant expression vector encoding N-terminally Nickel affinity tagged bromodomains from Brd2, Brd3, Brd4. Cell cultures were incubated at 37° C. with shaking to the appropriate density and induced overnight with IPTG. The supernatant of lysed cells was loaded onto Ni-IDA column for purification. Eluted protein was pooled, concentrated and further purified by size exclusion chromatography. Fractions representing monomeric protein were pooled, concentrated, aliquoted, and frozen at −80° C. for use in subsequent experiments.
Binding of tetra-acetylated histone H4 and BET bromodomains was confirmed by a Time Resolved Fluorescence Resonance Energy Transfer (TR-FRET) method. N-terminally His-tagged bromodomains (200 nM) and biotinylated tetra-acetylated histone H4 peptide (25-50 nM, Millipore) were incubated in the presence of Europium Cryptate-labeled streptavidin (Cisbio Cat. #610SAKLB) and XL665-labeled monoclonal anti-His antibody (Cisbio Cat. #61HISXLB) in a white 96 well microtiter plate (Greiner). For inhibition assays, serially diluted test compound was added to these reactions in a 0.2% final concentration of DMSO. Final buffer concentrations were 30 mM HEPES pH 7.4, 30 mM NaCl, 0.3 mM CHAPS, 20 mM phosphate pH 7.0, 320 mM KF, 0.08% BSA). After a 2-h incubation at room temperature, the fluorescence by FRET was measured at 665 and 620 nm by a SynergyH4 plate reader (Biotek). The binding inhibitory activity was shown by a decrease in 665 nm fluorescence relative to 620 nm. IC50 values were determined from a dose response curve.

SMILES	IC50 [µM]
Cc1noc(C)c1-c1cnc2nc(NCC(C)(C)O)n(Cc3ccccc3)c2c1 [compound 237, 1-((1-benzyl-6-(3,5-dimethylisoxazol-4-yl)-1H-imidazo[4,5-b]pyridin-2-yl)amino)-2-methylpropan-2-ol]	≤ 0.3
COCCCNc1nc2ncc(-c3c(C)noc3C)cc2n1Cc1ccccc1 [compound 226, 1-benzyl-6-(3,5-dimethylisoxazol-4-yl)-N-(3-methoxypropyl)-1H-imidazo[4,5-b]pyridin-2-amine]	≤ 0.3
Cc1noc(C)c1-c1cnc2nc(NCCN3CCCC3)n(Cc3ccccc3)c2c1 [compound 238, 1-benzyl-6-(3,5-dimethylisoxazol-4-yl)-N-(2-(pyrrolidin-1-yl)ethyl)-1H-imidazo[4,5-b]pyridin-2-amine]	≤ 0.3
Cc1noc(C)c1-c1cnc2nc(NCCN3CCCCC3)n(Cc3ccccc3)c2c1 [compound 239, 1-benzyl-6-(3,5-dimethylisoxazol-4-yl)-N-(2-(piperidin-1-yl)ethyl)-1H-imidazo[4,5-b]pyridin-2-amine]	≤ 0.3
Cc1noc(C)c1-c1cc(Br)c2nc(C)n(CCCc3ccccc3)c2c1 [compound 187, 4-(4-bromo-2-methyl-1-(3-phenylpropyl)-1H-benzo[d]imidazol-6-yl)-3,5-dimethylisoxazole]	0.3 to 3
Cc1noc(C)c1-c1cc(Br)c2c(c1)nc(C)n2CCCc1ccccc1 [compound 188, 4-(7-bromo-2-methyl-1-(3-phenylpropyl)-1H-benzo[d]imidazol-5-yl)-3,5-dimethylisoxazole]	3 to 30
Cc1noc(C)c1-c1cnc2nc(NCc3cnccn3)n(Cc3ccccc3)c2c1 [compound 229, 1-benzyl-6-(3,5-dimethylisoxazol-4-yl)-N-(pyrazin-2-ylmethyl)-1H-imidazo[4,5-b]pyridin-2-amine]	≤ 0.3
Cc1noc(C)c1-c1cnc2[nH]c(=O)n(Cc3ccc(Cl)c(Cl)c3)c2c1 [compound 101, 1-(3,4-dichlorobenzyl)-6-(3,5-dimethylisoxazol-4-yl)-1H-imidazo[4,5-b]pyridin-2(3H)-one]	0.3 to 3
Cc1noc(C)c1-c1cnc2nc(NC3CCN(C)CC3)n(Cc3ccccc3)c2c1 [compound 235, 1-benzyl-6-(3,5-dimethylisoxazol-4-yl)-N-(1-methylpiperidin-4-yl)-1H-imidazo[4,5-b]pyridin-2-amine]	≤ 0.3
Cc1noc(C)c1-c1cnc2[nH]c(=O)n(Cc3ccc(F)cc3)c2c1 [compound 228, 6-(3,5-dimethylisoxazol-4-yl)-1-(4-fluorobenzyl)-1H-imidazo[4,5-b]pyridin-2(3H)-one]	≤ 0.3
Cc1noc(C)c1-c1cnc2nc(NCC3CCOCC3)n(Cc3ccccc3)c2c1 [compound 230, 1-benzyl-6-(3,5-dimethylisoxazol-4-yl)-N-((tetrahydro-2H-pyran-4-yl)methyl)-1H-imidazo[4,5-b]pyridin-2-amine]	≤ 0.3
Cc1noc(C)c1-c1cc(Br)c2nc(C)n(CCOc3ccccc3)c2c1 [compound 189, 4-(4-bromo-2-methyl-1-(2-phenoxyethyl)-1H-benzo[d]imidazol-6-yl)-3,5-dimethylisoxazole]	0.3 to 3
Cn1nccc1-c1cnc2nc(N3CCOCC3)n(Cc3ccccc3)c2c1 [compound 175, 4-(1-benzyl-6-(1-methyl-1H-pyrazol-5-yl)-1H-imidazo[4,5-b]pyridin-2-yl)morpholine]	0.3 to 3
Cc1noc(C)c1-c1cnc2nc(NCC3CCCCC3)n(Cc3ccccc3)c2c1 [compound 225, 1-benzyl-N-(cyclohexylmethyl)-6-(3,5-dimethylisoxazol-4-yl)-1H-imidazo[4,5-b]pyridin-2-amine]	≤ 0.3
Cc1noc(C)c1-c1cnc2nc(NC3CCCCC3)n(Cc3ccccc3)c2c1 [compound 234, 1-benzyl-N-cyclohexyl-6-(3,5-dimethylisoxazol-4-yl)-1H-imidazo[4,5-b]pyridin-2-amine]	≤ 0.3
Cc1noc(C)c1-c1cc([N+](=O)[O-])c2[nH]c(=O)n([C@H](C)c3ccccc3)c2c1 [compound 240, (R)-6-(3,5-dimethylisoxazol-4-yl)-4-nitro-1-(1-phenylethyl)-1H-benzo[d]imidazol-2(3H)-one]	≤ 0.3
CNc1nc2ncc(-c3c(C)noc3C)cc2n1Cc1ccc(F)cc1 [compound 232, 6-(3,5-dimethylisoxazol-4-yl)-1-(4-fluorobenzyl)-N-methyl-1H-imidazo[4,5-b]pyridin-2-amine]	≤ 0.3
CNc1nc2ncc(-c3c(C)noc3C)cc2n1Cc1ccc(Cl)cc1 [compound 233, 1-(4-chlorobenzyl)-6-(3,5-dimethylisoxazol-4-yl)-N-methyl-1H-imidazo[4,5-b]pyridin-2-amine]	≤ 0.3
COc1c(-c2c(C)noc2C)ccc2nc(C(F)(F)F)n(Cc3ccccc3)c12 [compound 241, 4-(1-benzyl-7-methoxy-2-(trifluoromethyl)-1H-benzo[d]imidazol-6-yl)-3,5-dimethylisoxazole]	0.3 to 3
Cc1nn(C)c(C)c1-c1cc(N)c2nc(C)n(Cc3ccccc3)c2c1 [compound 184, 1-benzyl-2-methyl-6-(1,3,5-trimethyl-1H-pyrazol-4-yl)-1H-benzo[d]imidazol-4-amine]	3 to 30
CC(=O)Nc1cc(-c2ccnn2C)cc2c1n(C)c(=O)n2Cc1ccccc1 [compound 204, N-(1-benzyl-3-methyl-6-(1-methyl-1H-pyrazol-5-yl)-2-oxo-2,3-dihydro-1H-benzo[d]imidazol-4-yl)acetamide]	0.3 to 3
Cc1noc(C)c1-c1cnc2nc(NCCN3CCN(C)CC3)n(Cc3ccccc3)c2c1 [compound 231, 1-benzyl-6-(3,5-dimethylisoxazol-4-yl)-N-(2-(4-methylpiperazin-1-yl)ethyl)-1H-imidazo[4,5-b]pyridin-2-amine]	≤ 0.3
Cc1noc(C)c1-c1cc([N+](=O)[O-])c2nc(NCc3ccccc3)n(Cc3ccccc3)c2c1 [compound 147, N,1-dibenzyl-6-(3,5-dimethylisoxazol-4-yl)-4-nitro-1H-benzo[d]imidazol-2-amine]	≤ 0.3
Cc1noc(C)c1-c1cnc2nc(NC3CCC(N)CC3)n(Cc3ccccc3)c2c1 (stereo not shown) [compound 224, N1-(1-benzyl-6-(3,5-dimethylisoxazol-4-yl)-1H-imidazo[4,5-b]pyridin-2-yl)cyclohexane-1,4-diamine]	≤ 0.3
Cc1noc(C)c1-c1cnc2nc(Oc3cccnc3)n(Cc3ccccc3)c2c1 [compound 236, 4-(1-benzyl-2-(pyridin-3-yloxy)-1H-imidazo[4,5-b]pyridin-6-yl)-3,5-dimethylisoxazole]	≤ 0.3
Cc1noc(C)c1-c1cc(Br)c2c(c1)nc(C)n2CCOc1ccccc1 [compound 190, 4-(7-bromo-2-methyl-1-(2-phenoxyethyl)-1H-benzo[d]imidazol-5-yl)-3,5-dimethylisoxazole]	0.3 to 3
Cc1noc(C)c1-c1cnc2nc(NC3COC3)n(Cc3ccccc3)c2c1 [compound 227, 1-benzyl-6-(3,5-dimethylisoxazol-4-yl)-N-(oxetan-3-yl)-1H-imidazo[4,5-b]pyridin-2-amine]	≤ 0.3
Cn1nccc1-c1ccc2c(c1)N(Cc1ccccc1)CC(=O)N2 [compound 166, 4-benzyl-6-(1-methyl-1H-pyrazol-5-yl)-3,4-dihydroquinoxalin-2(1H)-one]	0.3 to 3
